Source: ChEMBL document CHEMBL1201862, “PubChem BioAssay data set” (2004)
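All cell lines were grown in 96-well plates and treated with compound for 48 hours. GI50 is the concentration that inhibits growth by half.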 Activity calls are given as the source filed them. No stated cut-off is given here; in the data, active = GI50 up to about 1.1 µM and inactive = higher.

Experiments:
Experiment in all cases: DTP human tumour cell line panel, 48 h
K562 = system: K562
SNB-75 = system: SNB-75
HOP-62 = system: HOP-62
LOX IMVI = system: LOX IMVI
EKVX = system: EKVX
UACC-257 = system: UACC-257
CCRF-CEM = system: CCRF-CEM
RPMI-8226 = system: RPMI-8226
MDA-MB-231 = system: MDA-MB-231
HOP-92 = system: HOP-92
HT-29 = system: HT-29
MDA-N = system: MDA-N
IGROV-1 = system: IGROV-1
NCI-H522 = system: NCI-H522
Hs-578T = system: Hs-578T
U-251 = system: U-251
NCI/ADR-RES = system: NCI/ADR-RES
KM12 = system: KM12
COLO 205 = system: COLO 205
A498 = system: A498

Measured: GI50

COC(=O)c1c(C)cc(OC)c(C/C=C(\C)CCCc2coc(C=C(C)C)c2)c1OC
inactive: K562 > 100 µM | SNB-75 21.3 µM | HOP-62 > 100 µM | LOX IMVI > 100 µM | EKVX > 100 µM | UACC-257 > 100 µM | CCRF-CEM 41.5 µM | RPMI-8226 99.5 µM | MDA-MB-231 > 100 µM | HOP-92 > 100 µM | HT-29 74.8 µM | MDA-N > 100 µM | IGROV-1 > 100 µM | NCI-H522 14.9 µM | Hs-578T 18.2 µM | U-251 > 100 µM | NCI/ADR-RES > 100 µM | KM12 > 100 µM | COLO 205 > 100 µM

Cc1cn(C2CC(n3cc(Cn4cc(F)c(=O)[nH]c4=O)nn3)C(CO)O2)c(=O)[nH]c1=O (centres undefined)
inactive: SNB-75 > 100 µM | HOP-62 > 100 µM | LOX IMVI > 100 µM | EKVX > 100 µM | UACC-257 > 100 µM | CCRF-CEM > 100 µM | RPMI-8226 > 100 µM | A498 > 100 µM | MDA-MB-231 > 100 µM | HOP-92 > 100 µM | MDA-N > 100 µM | IGROV-1 > 100 µM | Hs-578T > 100 µM | U-251 > 100 µM | NCI/ADR-RES > 100 µM | KM12 > 100 µM | COLO 205 > 100 µM

O=c1n(-c2ccccc2)c(=O)n2n1C1Cc3ccccc3C12 (centres undefined)
inactive: K562 > 100 µM | SNB-75 69.5 µM | HOP-62 > 100 µM | LOX IMVI > 100 µM | EKVX > 100 µM | UACC-257 > 100 µM | CCRF-CEM > 100 µM | RPMI-8226 > 100 µM | A498 > 100 µM | MDA-MB-231 > 100 µM | HOP-92 > 100 µM | HT-29 > 100 µM | MDA-N > 100 µM | IGROV-1 > 100 µM | Hs-578T 15 µM | U-251 > 100 µM | NCI/ADR-RES > 100 µM | KM12 > 100 µM | COLO 205 > 100 µM

C(=N\OCCc1ccccc1)/c1cccnc1
inactive: K562 > 100 µM | SNB-75 71.6 µM | HOP-62 > 100 µM | EKVX > 100 µM | UACC-257 > 100 µM | CCRF-CEM > 100 µM | RPMI-8226 > 100 µM | MDA-MB-231 > 100 µM | HOP-92 > 100 µM | HT-29 > 100 µM | MDA-N > 100 µM | IGROV-1 > 100 µM | NCI-H522 > 100 µM | Hs-578T > 100 µM | U-251 > 100 µM | NCI/ADR-RES > 100 µM | KM12 > 100 µM | COLO 205 > 100 µM

Cc1nc2ccc(S(=O)(=O)Nc3ccccc3Cl)cc2c(=O)n1NC(=O)CNc1ccccc1Cl
inactive: K562 > 100 µM | SNB-75 > 100 µM | HOP-62 > 100 µM | LOX IMVI > 100 µM | EKVX > 100 µM | UACC-257 > 100 µM | CCRF-CEM > 100 µM | RPMI-8226 > 100 µM | MDA-MB-231 > 100 µM | HOP-92 > 100 µM | HT-29 > 100 µM | MDA-N > 100 µM | IGROV-1 > 100 µM | NCI-H522 > 100 µM | Hs-578T > 100 µM | U-251 > 100 µM | NCI/ADR-RES > 100 µM | KM12 > 100 µM | COLO 205 > 100 µM

Cc1nn(-c2ccccc2)c2nc3ccc(Cl)cc3c(-c3ccccc3)c12
inactive: SNB-75 > 100 µM | HOP-62 > 100 µM | LOX IMVI > 100 µM | EKVX > 100 µM | CCRF-CEM > 100 µM | RPMI-8226 > 100 µM | MDA-MB-231 > 100 µM | HOP-92 > 100 µM | HT-29 > 100 µM | MDA-N > 100 µM | IGROV-1 > 100 µM | NCI-H522 > 100 µM | Hs-578T > 100 µM | U-251 > 100 µM | NCI/ADR-RES > 100 µM | KM12 > 100 µM | COLO 205 > 100 µM

CCOC(=O)c1ccc(NC(=O)O/N=C(/Cl)CCl)cc1
inactive: K562 25.2 µM | SNB-75 4.01 µM | HOP-62 > 100 µM | LOX IMVI 50.1 µM | EKVX 23.5 µM | UACC-257 44.6 µM | CCRF-CEM 21.5 µM | RPMI-8226 47.2 µM | A498 15.2 µM | MDA-MB-231 > 100 µM | HT-29 54.6 µM | MDA-N 37.8 µM | IGROV-1 > 100 µM | Hs-578T > 100 µM | U-251 39.4 µM | NCI/ADR-RES 24.5 µM | KM12 15.4 µM | COLO 205 39.6 µM

CCOC(=O)C#Cc1ccccc1
inactive: K562 2.14 µM | HOP-62 17.3 µM | LOX IMVI 2.96 µM | EKVX 2.28 µM | UACC-257 33.9 µM | CCRF-CEM 2.94 µM | RPMI-8226 12.2 µM | A498 21.3 µM | MDA-MB-231 16.4 µM | HOP-92 18.3 µM | HT-29 7.24 µM | MDA-N 4.09 µM | Hs-578T 19.3 µM | U-251 11.1 µM | NCI/ADR-RES 4.82 µM | KM12 12.2 µM | COLO 205 11.2 µM

CC1CN=C(N(C(=O)Nc2ccccc2)c2ccccc2)S1 (centres undefined)
inactive: K562 43.9 µM | SNB-75 13.3 µM | HOP-62 39.9 µM | LOX IMVI 18.8 µM | EKVX 29 µM | UACC-257 17.1 µM | CCRF-CEM 23.4 µM | RPMI-8226 26 µM | A498 10.6 µM | MDA-MB-231 27.4 µM | HT-29 17.9 µM | MDA-N 24.1 µM | IGROV-1 42.6 µM | Hs-578T 42.5 µM | U-251 37.7 µM | NCI/ADR-RES 22 µM | KM12 32.7 µM | COLO 205 59.3 µM

CCOC(=O)C(C(=S)SC)c1nn2c(=O)cc(C)nc2s1 (centres undefined)
inactive: K562 18.2 µM | SNB-75 20.7 µM | HOP-62 22.4 µM | LOX IMVI 15.9 µM | EKVX 18.8 µM | UACC-257 21 µM | CCRF-CEM 29.4 µM | RPMI-8226 19.6 µM | MDA-MB-231 19.5 µM | HOP-92 21.7 µM | HT-29 21.5 µM | MDA-N 15.8 µM | IGROV-1 19.6 µM | NCI-H522 21.1 µM | Hs-578T 22.1 µM | U-251 16 µM | NCI/ADR-RES 24.3 µM | KM12 26.2 µM | COLO 205 24.6 µM

O=C(Cn1c(C(=O)/C=C/c2ccco2)nc2ccccc21)c1ccc(Cl)cc1
inactive: K562 11.7 µM | SNB-75 29 µM | HOP-62 46.8 µM | LOX IMVI 13.8 µM | UACC-257 14.5 µM | CCRF-CEM 3.58 µM | RPMI-8226 10.1 µM | A498 17.2 µM | MDA-MB-231 20.2 µM | HOP-92 26.4 µM | HT-29 26.1 µM | MDA-N 17.1 µM | IGROV-1 15.1 µM | Hs-578T 1.29 µM | U-251 23.8 µM | NCI/ADR-RES 11.8 µM | KM12 14.9 µM | COLO 205 19.4 µM
